Like-named read-outs stand apart in the source and are kept apart here.
Tests used:
[1] = tested on: JFH1-HCVcc in primary human hepatocytes; type: cell-based, HCV (JFH1); human hepatocytes; settings: 3 days
Experimental: Primary human hepatocytes (PHH) were prepared from patients undergoing partial hepatectomy for metastases or benign tumors. Fresh human hepatocytes were isolated from encapsulated liver fragments using a modification of the two-step collagenase digestion method. Briefly, encapsulated liver tissue was placed in a custom-made perfusion apparatus and hepatic vessels were cannulated with tubing attached multichannel manifold. The liver fragment was initially perfused for 20 min with a prewarmed (37° C.) calcium-free buffer supplemented with ethylene glycol tetraacetic acid (EGTA) followed by perfusion with a prewarmed (37° C.) buffer containing calcium (CaCl2), H2O2) and collagenase 0.05% for 10 min. Then, liver fragment was gently shaken to free liver cells in Hepatocyte Wash Medium. Cellular suspension was filtered through a gauze-lined funnel. Cells were centrifuged at low speed centrifugation. The supernatant, containing damaged or dead hepatocytes, non parenchymal cells and debris was removed and pelleted hepatocytes were re-suspended in Hepatocyte Wash Medium. Viability and cell concentration were determined by trypan blue exclusion test.
Cells were resuspended in complete hepatocyte medium consisting of William's medium (Invitrogen) supplemented with 100 IU/L insulin (Novo Nordisk, France), and 10% heat inactivated fetal calf serum (Biowest, France), and seeded at a density 1.8×10^6 viable cells onto 6 well plates that had been precoated with a type I collagen from calf skin (Sigma-Aldrich, France) The medium was replaced 16-20 hours later with fresh complete hepatocyte medium supplemented with hydrocortisone hemisuccinate (SERB, Paris, France), and cells were left in this medium until HCV inoculation. The cultures were maintained at 37° C. in a humidified 5% CO2 atmosphere.
The PHHs were inoculated 3 days after seeding. JFH1-HCVcc stocks were used to inoculate PHHs for 12 hours, at a multiplicity of infection (MOI) of 0.1 ffu per cell. After a 12-hours incubation at 37° C., the inoculum was removed, and monolayers were washed 3 times with phosphate-buffered saline and incubated in complete hepatocyte medium containing 0.1% dimethylsufoxide as carrier control, 100 IU/ml of IFNalpha as […] or else increasing concentrations of compound 8a. The cultures then were maintained during 3 days.
Total RNA was prepared from cultured cells or from filtered culture supernatants using the RNeasy or Qiamp viral RNA minikit respectively (Qiagen SA, Courtaboeuf, France) according to the manufacturer's recommendations. HCV RNA was quantified in cells and culture supernatants using a strand-specific reverse real-time PCR technique described previously (Carrière M and al 2007):
Reverse transcription was performed using primers described previously located in the […] region of HCV genome, tag-RC1 (5′-[…]-3′) and RC21 (5′-[…]-3′) for the negative and positive strands, respectively. After a denaturation step performed at 70° C. for 8 min, the RNA template was incubated at 4° C. for 5 min in the presence of 200 ng of tag-RC1 primer and 1.25 mM of each deoxynucleoside triphosphate (dNTP) (Promega, Charbonnieres, France) in a total volume of 12 μl.
Reverse transcription was carried out for 60 min at 60° C. in the presence of 20 U RNaseOut™ (Invitrogen, Cergy Pontoise, France) and 7.5 U Thermoscript™ reverse transcriptase (Invitrogen), in the buffer recommended by the manufacturer. An additional treatment was applied by adding 1 μl (2U) RNaseH (Invitrogen) for 20 min at 37° C.
The first round of nested PCR was performed with 2 μl of the cDNA obtained in a total volume of 50 μl, containing 3 U Taq polymerase (Promega), 0.5 mM dNTP, and 0.5 μM RC1 (5′-[…]-3′) and RC21 primers for positive-strand amplification, or Tag (5′-[…]-3′) and RC21 primers for negative strand amplification. […]

[2] = tested on: HCV 1b bicistronic subgenomic luciferase reporter replicon clone ET or Huh-Luc-Neo; assay: Replicon assays (B), Assay 3; type: cell-based; settings: Hepatitis C virus, 72 h, 3-day incubation, 8×10^3 or 2×10^4 cells, 96-well, n = 1
Experimental: (§1) The anti-HCV activity of compound 8a was tested in cell culture with replicon cells generated using reagents from the Bartenschlager laboratory (the HCV 1b bicistronic subgenomic luciferase reporter replicon clone ET or Huh-Luc-Neo). The protocol included either a 3-day incubation of 8×10^3 cells or 2×10^4 cells in a 96-well format in an eight-point 1:5 dilution series of the compound. Dose response curves were generated based on the luciferase read-out.

[3] = tested on: HCV 1b bicistronic subgenomic luciferase reporter replicon clone ET or Huh-Luc-Neo; assay: Replicon assays (B), Assay 2; type: cell-based; settings: Hepatitis C virus, 72 h, 3-day incubation, 2×10^4 cells, 96-well, n = 4, read-out: Average EC50 value (8a), Assay 2
Experimental: as §1, with “included” for “included either”, “of” for “of 8×10^3 cells or”, “2×10^4 replicon” for “2×10^4”, “a six-point” for “an eight-point”

[4] = tested on: HCV type 1b replicon (Huh-7 luc/neo cells); assay: Replicon assay (A), Huh-Luc luciferase read-out; type: cell-based, HCV genotype 1b; settings: Hepatitis C virus, Huh-7, 72 h, read-out: EC50 (μM) (HCV)
From the text: The compounds of formula I were examined for activity in the inhibition of HCV-RNA replication in a cellular assay. […] The cellular assay was based on a bicistronic expression construct, as described by Lohmann et al. (1999) Science vol. 285 pp. 110-113 with modifications described by Krieger et al. (2001) Journal of Virology 75: 4614-4624, in a multi-target screening strategy.
In essence, the method was as follows. The assay utilized the stably transfected cell line Huh-7 luc/neo (hereafter referred to as Huh-Luc). This cell line harbors an RNA encoding a bicistronic expression construct comprising the wild type NS3-NS5B regions of HCV type 1b translated from an internal ribosome entry site (IRES) from encephalomyocarditis virus (EMCV), preceded by a reporter portion (FfL-luciferase), and a selectable marker portion (neo^R, neomycine phosphotransferase). […]
The replicon cells were plated in 384-well plates in the presence of the test and control compounds which were added in various concentrations. Following an incubation of three days, HCV replication was measured by assaying luciferase activity (using standard luciferase assay substrates and reagents and a Perkin Elmer ViewLux™ ultraHTS microplate imager). […] The inhibitory activity of the compound on luciferase activity was monitored on the Huh-Luc cells, enabling a dose-response curve for each test compound. […]

[5] = tested on: HCV 1b bicistronic subgenomic luciferase reporter replicon clone ET; assay: Replicon assays (B), Assay 1; type: cell-based; settings: Hepatitis C virus, 72 h; 3-day incubation, 2500 cells 384-well luciferase (variation: 3000 cells 96-well qRT-PCR); n = 8
Experimental: The anti-HCV activity of compound 8a was tested in cell culture with replicon cells generated using reagents from the Bartenschlager laboratory (the HCV 1b bicistronic subgenomic luciferase reporter replicon clone ET). The protocol included a 3-day incubation of 2500 replicon cells in a 384-well format in a nine-point 1:4 dilution series of the compound. Dose response curves were generated based on the firefly luciferase read-out. In a variation of this assay, a 3 day incubation of 3000 cells in a 96-well format in a nine-point dilution series was followed by qRT-PCR Taqman detection of HCV genome, and normalized to the cellular transcript, RPL13 (of the ribosomal subunit RPL13 gene) as a control for compound inhibition of cellular transcription.

HCV G1a = assay: In vivo efficacy assay, humanized hepatocyte mouse model; set-up: species or system HCV G1a-infected PXB-mice; settings: PXB-mice
Experimental: The in vivo efficacy of compound 8a and CAS-1375074-52-4 was determined in a humanized hepatocyte mouse model (PBX-mouse) as previously described in Inoue et. al (Hepatology. 2007 April; 45(4):921-8) and Tenato et. al. (Am J Pathol 2004; 165-901-912) with the following specification: Test animals: HCV […]-infected PXB-mice, male or female, >70% replacement index of human hepatocytes. Dosing was performed p.o for 7 days at doses indicated below wherein QD represents a single dose per day, BID represents two doses per day. Efficacy of compound 8a was compared to CAS-1375074-52-4.

[6] = Cytotoxicity (CC50) in Huh-7; type: cell-based; settings: human, Huh-7 cells; Huh-7 cytotoxicity
From the text: The in vitro antiviral activity against HCV of the compounds of formula I can be tested in a cellular HCV replicon system based on Lohmann et al. (1999) Science 285:110-113, with the further modifications described by Krieger et al. (2001) Journal of Virology 75: 4614-4624 (incorporated herein by reference), which is further exemplified in the examples section. This model, while not a complete infection model for HCV, is widely accepted as the most robust and efficient model of autonomous HCV RNA replication currently available. It will be appreciated that it is important to distinguish between compounds that specifically interfere with HCV functions from those that exert cytotoxic or cytostatic effects in the HCV replicon model, and as a consequence cause a decrease in HCV RNA or linked reporter enzyme concentration. Assays are known in the field for the evaluation of cellular cytotoxicity based for example on the activity of mitochondrial enzymes using fluorogenic redox dyes such as resazurin. Furthermore, cellular counter screens exist for the evaluation of non-selective inhibition of linked reporter gene activity, such as firefly luciferase. […]

IFNα
positive strand HCV-RNA levels in primary human hepatocytes ([1]; Exp. 1, 100 IU/mL, HCV control 3.56): 1.48 10^6 HCV RNA copies/μg of total RNA
positive strand HCV-RNA levels in primary human hepatocytes ([1]; Exp. 2, 100 IU/mL, HCV control 5.53): 1.59 10^6 HCV RNA copies/μg of total RNA

CC(C)O[P@@]1(=O)OC[C@H]2O[C@@H](n3ccc(=O)[nH]c3=O)[C@@]3(CCO3)[C@@H]2O1 [Compound 8a]
EC50 [2]: > 100 µM
positive strand HCV-RNA levels in primary human hepatocytes ([1]; Exp. 1, 0.195 μM, HCV control 3.56): 2.18 10^6 HCV RNA copies/μg of total RNA
positive strand HCV-RNA levels in primary human hepatocytes ([1]; Exp. 1, 0.78 μm, HCV control 3.56): 2.25 10^6 HCV RNA copies/μg of total RNA
positive strand HCV-RNA levels in primary human hepatocytes ([1]; Exp. 1, 3.12 μm, HCV control 3.56): 1.09 10^6 HCV RNA copies/μg of total RNA
positive strand HCV-RNA levels in primary human hepatocytes ([1]; Exp. 1, 12.5 μm, HCV control 3.56): 2.17 10^6 HCV RNA copies/μg of total RNA
positive strand HCV-RNA levels in primary human hepatocytes ([1]; Exp. 1, 50 μm, HCV control 3.56): 0.94 10^6 HCV RNA copies/μg of total RNA
positive strand HCV-RNA levels in primary human hepatocytes ([1]; Exp. 2, 0.195 μM, HCV control 5.53): 1.12 10^6 HCV RNA copies/μg of total RNA
positive strand HCV-RNA levels in primary human hepatocytes ([1]; Exp. 2, 0.78 μm, HCV control 5.53): 1.3 10^6 HCV RNA copies/μg of total RNA
positive strand HCV-RNA levels in primary human hepatocytes ([1]; Exp. 2, 3.12 μm, HCV control 5.53): 0.94 10^6 HCV RNA copies/μg of total RNA
positive strand HCV-RNA levels in primary human hepatocytes ([1]; Exp. 2, 12.5 μm, HCV control 5.53): 1.3 10^6 HCV RNA copies/μg of total RNA
positive strand HCV-RNA levels in primary human hepatocytes ([1]; Exp. 2, 50 μm, HCV control 5.53): 1.33 10^6 HCV RNA copies/μg of total RNA
EC50 [3]: 17.5 µM
EC50 [4]: 0.13 µM
EC50 [5]: 57 µM
log drop HCV viral RNA after dosing for 7 days (HCV G1a; 50 mg/kg BID p.o.): clear log drop
log drop HCV viral RNA after dosing for 7 days (HCV G1a; 100 mg/kg BID p.o.): most pronounced log drop effect in viral RNA
log drop HCV viral RNA after dosing for 7 days (HCV G1a; 100 mg/kg QD p.o.): clear log drop
log drop HCV viral RNA after dosing for 7 days (HCV G1a; 200 mg/kg QD p.o.): clear log drop
CC50 [6]: > 100 µM
